Measurements: article PMC3857843, “Multiple Transport-Active Binding Sites Are Available for a Single Substrate on Human P-Glycoprotein (ABCB1)” (PLoS ONE, 2013)

Legend:
[1] = molecular target: T1, Y307C/Q725C/V982C mutant Pgp (Homo sapiens, UniProt P08183, C1074A/C1125A/C1227A/C137A/C431A/C717A/C956A/Q725C/V982C/Y307C); assay: Inhibition of IAAP photo-labeling of Pgp in crude membranes
Experimental: (§1) Then, samples were photocrosslinked with IAAP at 4°C as described in the Materials and Methods section. Mean values from at least three independent experiments are plotted and error bars depict SD.
(§2) High-Five insect cells (Invitrogen, Carlsbad, CA) were infected with recombinant baculovirus carrying the human MDR1 cDNA cysless WT and various mutant Pgps, with a His6-tag at the C-terminus as described previously. Crude membranes were prepared as described previously
(§3) The crude membranes of High-Five insect cells containing 60-80 µg protein per 100 µL in 50 mM MES-Tris buffer (pH 6.8), were incubated for 10 minutes at 37°C in the absence (control) and presence of compound(s) at indicated concentration.

[2] = molecular target: T2, cysless WT Pgp (Homo sapiens, UniProt P08183, C1074A/C1125A/C1227A/C137A/C431A/C717A/C956A); assay: as above
Experimental: as §1, §2, §3

[3] = molecular target: cysless WT Pgp (human MDR1) (Homo sapiens, UniProt P08183, C1074A/C1125A/C1227A/C137A/C431A/C717A/C956A); assay: as above; conditions: human, pH 6.8
Experimental: as §1, §2, §3

[4] = molecular target: F343C/V982C mutant Pgp (Homo sapiens, UniProt P08183, C1074A/C1125A/C1227A/C137A/C431A/C717A/C956A/F343C/V982C); assay: Vanadate-sensitive ATP hydrolysis of Pgp in crude membranes; conditions: Verapamil 50 µM, QZ59-SSS 1 µM, Valinomycin 10 µM, FSBA 1 mM
Experimental: (§4) Vanadate-sensitive Pgp-mediated ATP hydrolysis was measured as described in Materials and Methods. […] At least two independent experiments were carried out for each mutant with indicated compounds. Additional information including standard deviations, fold-stimulation or % inhibition, and number of experiments is given in the section (Tables S2 and S3).
as §2
(§5) Crude membranes (10-25 µg protein/100 µ L) from High Five insect cells expressing cysless WT or mutant Pgp were incubated in the presence and absence of sodium orthovanadate (0.3 mM), in a buffer containing 50 mM MES-Tris pH 6.8, 50 mM KCl, 5 mM NaN3, 1 mM EGTA, 1 mM ouabain, 2 mM DTT, and 10 mM MgCl2. […] The reaction was initiated by addition of 5 mM ATP and continued for 20 min at 37°C. […] The reaction was stopped by addition of 100 µ L of 5% SDS and the amount of inorganic phosphate generated was quantified with a colorimetric reaction, as previously described.

[5] = molecular target: F728C mutant Pgp (Homo sapiens, UniProt P08183, C1074A/C1125A/C1227A/C137A/C431A/C717A/C956A/F728C); assay: as above; conditions: Verapamil 50 µM, QZ59-SSS 1 µM, Valinomycin 10 µM, FSBA 1 mM
Experimental: as §4, §2, §5

[6] = molecular target: F728C/V982C mutant Pgp (Homo sapiens, UniProt P08183, C1074A/C1125A/C1227A/C137A/C431A/C717A/C956A/F728C/V982C); assay: as above; conditions: Verapamil 50 µM, QZ59-SSS 1 µM, Valinomycin 10 µM, FSBA 1 mM
Experimental: as §4, §2, §5

[7] = molecular target: T3, F978C mutant Pgp (Homo sapiens, UniProt P08183, C1074A/C1125A/C1227A/C137A/C431A/C717A/C956A/F978C); assay: as above; conditions: Verapamil 50 µM, QZ59-SSS 1 µM, Valinomycin 10 µM
Experimental: as §4, §2, §5

[8] = molecular target: Q725A mutant Pgp (Homo sapiens, UniProt P08183, C1074A/C1125A/C1227A/C137A/C431A/C717A/C956A/Q725A); assay: as above; conditions: Verapamil 50 µM, QZ59-SSS 1 µM, Valinomycin 10 µM
Experimental: as §4, §2, §5

[9] = molecular target: Q725C mutant Pgp (Homo sapiens, UniProt P08183, C1074A/C1125A/C1227A/C137A/C431A/C717A/C956A/Q725C); assay: as above; conditions: Verapamil 50 µM, QZ59-SSS 1 µM, Valinomycin 10 µM, FSBA 1 mM
Experimental: as §4, §2, §5

[10] = molecular target: Q725C/V982C mutant Pgp (Homo sapiens, UniProt P08183, C1074A/C1125A/C1227A/C137A/C431A/C717A/C956A/Q725C/V982C); assay: as above; conditions: Verapamil 50 µM, QZ59-SSS 1 µM, Valinomycin 10 µM, FSBA 1 mM
Experimental: as §4, §2, §5

[11] = molecular target: T4, V982C mutant Pgp (Homo sapiens, UniProt P08183, C1074A/C1125A/C1227A/C137A/C431A/C717A/C956A/V982C); assay: as above; conditions: Verapamil 50 µM, QZ59-SSS 1 µM, Valinomycin 10 µM, FSBA 1 mM
Experimental: as §4, §2, §5

[12] = molecular target: Y307C mutant Pgp (Homo sapiens, UniProt P08183, C1074A/C1125A/C1227A/C137A/C431A/C717A/C956A/Y307C); assay: as above; conditions: Verapamil 50 µM, QZ59-SSS 1 µM, Valinomycin 10 µM, FSBA 1 mM
Experimental: as §4, §2, §5

[13] = molecular target: T1, Y307C/Q725C/V982C mutant Pgp; assay: as above; conditions: Verapamil 50 µM, QZ59-SSS 1 µM, Valinomycin 10 µM, FSBA 1 mM
Experimental: as §4, §2, §5

[14] = molecular target: Y307C/V982C mutant Pgp (Homo sapiens, UniProt P08183, C1074A/C1125A/C1227A/C137A/C431A/C717A/C956A/V982C/Y307C); assay: as above; conditions: Verapamil 50 µM, QZ59-SSS 1 µM, Valinomycin 10 µM, FSBA 1 mM
Experimental: as §4, §2, §5

[15] = molecular target: T2, cysless WT Pgp; assay: as above; conditions: Verapamil 50 µM, QZ59-SSS 1 µM, Valinomycin 10 µM, FSBA 1 mM
Experimental: as §4, §2, §5

[16] = molecular target: F728C mutant Pgp (human MDR1) (Homo sapiens, UniProt P08183, C1074A/C1125A/C1227A/C137A/C431A/C717A/C956A/F728C); assay: in vitro; conditions: pH 6.8
Experimental: as §1, §2, §3

[17] = molecular target: T3, F978C mutant Pgp; assay: biochemical
Experimental: as §1, §2, §3

[18] = molecular target: F978C mutant Pgp (human MDR1) (Homo sapiens, UniProt P08183, C1074A/C1125A/C1227A/C137A/C431A/C717A/C956A/F978C); assay: in vitro; conditions: human, pH 6.8
Experimental: as §1, §2, §3

[19] = molecular target: Q725C mutant Pgp (human MDR1) (Homo sapiens, UniProt P08183, C1074A/C1125A/C1227A/C137A/C431A/C717A/C956A/Q725C); assay: in vitro; conditions: pH 6.8
Experimental: as §1, §2, §3

[20] = molecular target: Q725C/V982C mutant Pgp (human MDR1) (Homo sapiens, UniProt P08183, C1074A/C1125A/C1227A/C137A/C431A/C717A/C956A/Q725C/V982C); assay: in vitro; conditions: pH 6.8
Experimental: as §1, §2, §3

[21] = molecular target: T4, V982C mutant Pgp; assay: biochemical
Experimental: as §1, §2, §3

[22] = molecular target: V982C mutant Pgp (human MDR1) (Homo sapiens, UniProt P08183, C1074A/C1125A/C1227A/C137A/C431A/C717A/C956A/V982C); assay: in vitro; conditions: human, pH 6.8
Experimental: as §1, §2, §3

[23] = molecular target: Y307C/Q725C/V982C mutant Pgp (human MDR1) (Homo sapiens, UniProt P08183, C1074A/C1125A/C1227A/C137A/C431A/C717A/C956A/Q725C/V982C/Y307C); assay: in vitro; conditions: human, pH 6.8
Experimental: as §1, §2, §3

[24] = system: all mutant Pgps; assay: Vanadate-sensitive ATP hydrolysis of Pgp in crude membranes; assay type: biochemical, human; conditions: all mutant Pgps; inhibition measured in presence of verapamil 5 µM
Experimental: Crude membranes were prepared as described previously

T3 sequence (P08183 whole entry C137A/C431A/C717A/C956A/F978C/C1074A/C1125A/C1227A): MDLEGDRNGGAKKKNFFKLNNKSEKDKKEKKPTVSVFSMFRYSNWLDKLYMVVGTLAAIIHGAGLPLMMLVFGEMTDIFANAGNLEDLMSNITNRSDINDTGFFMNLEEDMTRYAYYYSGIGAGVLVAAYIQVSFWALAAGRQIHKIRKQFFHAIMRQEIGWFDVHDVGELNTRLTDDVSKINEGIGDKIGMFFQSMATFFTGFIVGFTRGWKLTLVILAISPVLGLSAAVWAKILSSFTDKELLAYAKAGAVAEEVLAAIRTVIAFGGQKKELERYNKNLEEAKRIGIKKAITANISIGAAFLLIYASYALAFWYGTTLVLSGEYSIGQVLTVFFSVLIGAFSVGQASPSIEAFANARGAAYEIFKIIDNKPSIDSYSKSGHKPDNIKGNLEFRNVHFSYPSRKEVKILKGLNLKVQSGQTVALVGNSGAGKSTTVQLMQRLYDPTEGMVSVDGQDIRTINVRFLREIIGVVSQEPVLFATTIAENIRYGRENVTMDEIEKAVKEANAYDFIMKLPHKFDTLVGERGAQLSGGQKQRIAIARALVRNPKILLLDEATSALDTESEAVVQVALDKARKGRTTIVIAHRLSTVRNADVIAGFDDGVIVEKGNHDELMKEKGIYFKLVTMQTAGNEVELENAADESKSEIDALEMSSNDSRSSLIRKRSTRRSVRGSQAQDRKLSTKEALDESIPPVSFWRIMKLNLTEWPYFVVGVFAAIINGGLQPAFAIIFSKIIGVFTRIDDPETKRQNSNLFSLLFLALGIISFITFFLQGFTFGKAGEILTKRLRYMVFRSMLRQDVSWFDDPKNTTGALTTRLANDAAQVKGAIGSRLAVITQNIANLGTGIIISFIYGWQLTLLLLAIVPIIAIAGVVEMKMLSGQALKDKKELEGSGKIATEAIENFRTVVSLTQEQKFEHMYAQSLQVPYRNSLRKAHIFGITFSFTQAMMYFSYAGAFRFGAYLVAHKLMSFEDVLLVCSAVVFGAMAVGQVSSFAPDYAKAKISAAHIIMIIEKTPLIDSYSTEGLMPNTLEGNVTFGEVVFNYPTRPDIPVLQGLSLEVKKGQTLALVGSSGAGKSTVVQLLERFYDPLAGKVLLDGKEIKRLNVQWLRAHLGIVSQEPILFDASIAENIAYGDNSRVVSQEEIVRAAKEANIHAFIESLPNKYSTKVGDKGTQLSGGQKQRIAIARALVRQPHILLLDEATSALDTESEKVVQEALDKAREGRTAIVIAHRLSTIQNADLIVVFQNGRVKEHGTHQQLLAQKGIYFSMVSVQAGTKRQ
T1 sequence (P08183 whole entry C137A/Y307C/C431A/C717A/Q725C/C956A/V982C/C1074A/C1125A/C1227A): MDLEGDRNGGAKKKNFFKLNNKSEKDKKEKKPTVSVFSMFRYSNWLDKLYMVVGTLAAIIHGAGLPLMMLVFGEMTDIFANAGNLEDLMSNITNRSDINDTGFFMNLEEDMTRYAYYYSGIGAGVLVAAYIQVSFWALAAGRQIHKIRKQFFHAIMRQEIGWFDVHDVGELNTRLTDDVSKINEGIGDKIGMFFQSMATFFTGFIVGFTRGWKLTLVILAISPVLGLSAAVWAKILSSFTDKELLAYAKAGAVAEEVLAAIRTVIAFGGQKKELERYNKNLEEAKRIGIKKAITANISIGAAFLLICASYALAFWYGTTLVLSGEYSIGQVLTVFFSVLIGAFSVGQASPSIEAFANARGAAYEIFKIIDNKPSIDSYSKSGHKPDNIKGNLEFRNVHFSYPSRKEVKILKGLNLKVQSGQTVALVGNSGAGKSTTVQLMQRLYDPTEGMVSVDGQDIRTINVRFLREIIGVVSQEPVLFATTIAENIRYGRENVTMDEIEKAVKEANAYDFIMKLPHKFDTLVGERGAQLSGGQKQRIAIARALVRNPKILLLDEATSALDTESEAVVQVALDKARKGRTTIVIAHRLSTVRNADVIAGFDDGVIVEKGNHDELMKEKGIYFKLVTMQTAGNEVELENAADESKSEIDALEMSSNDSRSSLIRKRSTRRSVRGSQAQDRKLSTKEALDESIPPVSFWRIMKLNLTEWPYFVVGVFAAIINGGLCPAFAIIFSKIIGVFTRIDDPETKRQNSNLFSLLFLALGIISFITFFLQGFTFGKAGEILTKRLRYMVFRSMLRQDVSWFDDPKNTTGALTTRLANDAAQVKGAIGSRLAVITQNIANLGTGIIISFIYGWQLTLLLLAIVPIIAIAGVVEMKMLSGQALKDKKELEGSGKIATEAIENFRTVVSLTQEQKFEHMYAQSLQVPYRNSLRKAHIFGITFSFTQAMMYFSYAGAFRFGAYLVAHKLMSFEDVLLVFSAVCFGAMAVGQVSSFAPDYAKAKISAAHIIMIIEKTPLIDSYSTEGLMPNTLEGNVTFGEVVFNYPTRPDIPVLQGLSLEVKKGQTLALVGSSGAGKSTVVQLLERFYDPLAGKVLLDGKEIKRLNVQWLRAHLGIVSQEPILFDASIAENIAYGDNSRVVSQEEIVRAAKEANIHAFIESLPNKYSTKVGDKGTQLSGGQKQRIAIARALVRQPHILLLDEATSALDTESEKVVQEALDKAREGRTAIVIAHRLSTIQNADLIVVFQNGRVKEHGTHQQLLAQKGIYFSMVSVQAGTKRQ
T2 sequence (P08183 whole entry C137A/C431A/C717A/C956A/C1074A/C1125A/C1227A): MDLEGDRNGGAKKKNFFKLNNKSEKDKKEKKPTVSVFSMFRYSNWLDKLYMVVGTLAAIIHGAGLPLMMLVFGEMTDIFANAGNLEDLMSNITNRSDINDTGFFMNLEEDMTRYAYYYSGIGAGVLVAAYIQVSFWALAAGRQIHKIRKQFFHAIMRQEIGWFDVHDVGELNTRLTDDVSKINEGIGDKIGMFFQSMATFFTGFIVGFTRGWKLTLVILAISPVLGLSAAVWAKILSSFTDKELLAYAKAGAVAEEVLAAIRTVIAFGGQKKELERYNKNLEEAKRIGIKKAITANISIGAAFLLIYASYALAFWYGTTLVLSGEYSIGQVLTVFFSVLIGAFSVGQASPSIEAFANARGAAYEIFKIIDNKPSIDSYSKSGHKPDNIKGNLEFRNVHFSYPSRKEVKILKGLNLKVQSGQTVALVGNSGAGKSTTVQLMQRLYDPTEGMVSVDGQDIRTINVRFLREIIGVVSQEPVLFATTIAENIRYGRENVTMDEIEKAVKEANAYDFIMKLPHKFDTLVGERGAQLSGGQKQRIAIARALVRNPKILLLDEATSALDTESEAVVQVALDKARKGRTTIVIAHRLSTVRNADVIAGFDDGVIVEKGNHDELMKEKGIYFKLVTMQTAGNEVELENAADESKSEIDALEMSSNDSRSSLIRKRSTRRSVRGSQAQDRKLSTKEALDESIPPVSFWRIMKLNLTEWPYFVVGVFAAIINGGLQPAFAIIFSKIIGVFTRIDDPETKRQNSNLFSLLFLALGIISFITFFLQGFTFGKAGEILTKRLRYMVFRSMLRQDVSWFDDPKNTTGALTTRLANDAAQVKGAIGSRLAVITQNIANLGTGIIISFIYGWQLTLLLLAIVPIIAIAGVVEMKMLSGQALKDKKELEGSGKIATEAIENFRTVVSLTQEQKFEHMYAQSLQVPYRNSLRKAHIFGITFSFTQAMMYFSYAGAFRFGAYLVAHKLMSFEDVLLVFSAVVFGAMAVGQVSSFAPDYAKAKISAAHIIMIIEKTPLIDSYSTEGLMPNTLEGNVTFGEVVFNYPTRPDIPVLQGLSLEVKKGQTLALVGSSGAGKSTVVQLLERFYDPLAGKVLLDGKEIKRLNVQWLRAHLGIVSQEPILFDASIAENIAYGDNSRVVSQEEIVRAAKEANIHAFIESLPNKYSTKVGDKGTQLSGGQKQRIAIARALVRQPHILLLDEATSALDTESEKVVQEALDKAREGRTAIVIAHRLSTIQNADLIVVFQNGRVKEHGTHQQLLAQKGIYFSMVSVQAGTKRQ
Chain of Q725A mutant Pgp (P08183 whole entry C137A/C431A/C717A/Q725A/C956A/C1074A/C1125A/C1227A): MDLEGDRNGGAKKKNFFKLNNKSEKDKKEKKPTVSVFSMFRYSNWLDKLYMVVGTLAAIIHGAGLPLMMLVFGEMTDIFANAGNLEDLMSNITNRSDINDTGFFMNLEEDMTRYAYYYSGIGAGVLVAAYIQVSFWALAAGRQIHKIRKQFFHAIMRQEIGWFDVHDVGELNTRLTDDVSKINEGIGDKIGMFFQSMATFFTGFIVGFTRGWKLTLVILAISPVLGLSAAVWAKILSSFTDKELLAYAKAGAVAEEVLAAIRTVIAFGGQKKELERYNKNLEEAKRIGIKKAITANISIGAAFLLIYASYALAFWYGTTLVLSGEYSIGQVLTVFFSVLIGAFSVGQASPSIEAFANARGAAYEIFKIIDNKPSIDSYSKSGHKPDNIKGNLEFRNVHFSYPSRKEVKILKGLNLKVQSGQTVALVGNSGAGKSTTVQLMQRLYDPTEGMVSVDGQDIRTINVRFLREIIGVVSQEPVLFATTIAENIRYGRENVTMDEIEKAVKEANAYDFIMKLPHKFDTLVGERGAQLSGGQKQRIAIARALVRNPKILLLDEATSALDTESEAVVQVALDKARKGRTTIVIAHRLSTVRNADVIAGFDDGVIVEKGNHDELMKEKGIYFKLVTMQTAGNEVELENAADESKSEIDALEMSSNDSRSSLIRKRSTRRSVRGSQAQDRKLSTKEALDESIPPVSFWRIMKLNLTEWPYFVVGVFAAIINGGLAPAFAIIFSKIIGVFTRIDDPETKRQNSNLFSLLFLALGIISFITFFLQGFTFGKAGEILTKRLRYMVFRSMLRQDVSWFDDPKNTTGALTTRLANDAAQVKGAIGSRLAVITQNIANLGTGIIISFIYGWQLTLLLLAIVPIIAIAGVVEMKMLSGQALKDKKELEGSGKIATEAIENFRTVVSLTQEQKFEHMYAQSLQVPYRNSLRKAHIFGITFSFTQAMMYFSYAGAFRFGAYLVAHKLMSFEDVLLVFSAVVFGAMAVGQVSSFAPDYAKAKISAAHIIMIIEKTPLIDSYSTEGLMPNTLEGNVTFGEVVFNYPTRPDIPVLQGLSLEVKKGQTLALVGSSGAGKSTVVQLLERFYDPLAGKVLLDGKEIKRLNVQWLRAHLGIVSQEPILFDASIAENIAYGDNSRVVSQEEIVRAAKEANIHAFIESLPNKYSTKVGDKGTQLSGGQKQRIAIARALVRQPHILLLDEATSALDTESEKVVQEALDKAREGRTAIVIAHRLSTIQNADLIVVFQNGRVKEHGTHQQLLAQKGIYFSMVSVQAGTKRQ

## CC(C)[C@@H]1NC(=O)[C@H](C)OC(=O)[C@@H](C(C)C)NC(=O)[C@@H](C(C)C)OC(=O)[C@H](C(C)C)NC(=O)[C@H](C)OC(=O)[C@@H](C(C)C)NC(=O)[C@@H](C(C)C)OC(=O)[C@H](C(C)C)NC(=O)[C@H](C)OC(=O)[C@@H](C(C)C)NC(=O)[C@@H](C(C)C)OC1=O [valinomycin]
[1]; Y307C/Q725C/V982C
  Ability to inhibit IAAP photo-labeling: lose almost completely this ability
[2]
  IC50: 600 nM
[3]
  inhibition at 10 min: 82%
[4]
  ATP hydrolysis, Average: 56 nmoles Pi/min/mg protein
[4]; relative to basal
  ATP hydrolysis, Fold-stimulation: 3.1
[5]
  ATP hydrolysis, Average: 23 nmoles Pi/min/mg protein
[5]; relative to basal
  ATP hydrolysis, Fold-stimulation: 3.9
[6]
  ATP hydrolysis, Average: 10 nmoles Pi/min/mg protein
[6]; relative to basal
  ATP hydrolysis, Fold-stimulation: 2.5
[7]
  ATP hydrolysis, Average: 18 nmoles Pi/min/mg protein
[7]; relative to basal
  ATP hydrolysis, Fold-stimulation: 1.5
[8]
  ATP hydrolysis, Average: 11 nmoles Pi/min/mg protein
[8]; relative to basal
  ATP hydrolysis, Fold-stimulation: 2.1
[9]
  ATP hydrolysis, Average: 12 nmoles Pi/min/mg protein
[9]; relative to basal
  ATP hydrolysis, Fold-stimulation: 2.5
[10]
  ATP hydrolysis, Average: 5 nmoles Pi/min/mg protein
[11]
  ATP hydrolysis, Average: 13 nmoles Pi/min/mg protein
[12]
  ATP hydrolysis, Average: 17 nmoles Pi/min/mg protein
[12]; relative to basal
  ATP hydrolysis, Fold-stimulation: 2.2
[13]
  ATP hydrolysis, Average: 14 nmoles Pi/min/mg protein
[13]; relative to basal
  ATP hydrolysis, Fold-stimulation: 2.8
[14]
  ATP hydrolysis, Average: 33 nmoles Pi/min/mg protein
[14]; relative to basal
  ATP hydrolysis, Fold-stimulation: 3.5
[15]
  ATP hydrolysis, Average: 40 nmoles Pi/min/mg protein
[15]; relative to basal
  ATP hydrolysis, Fold-stimulation: 1.9

## COc1cc2c(cc1OC)CN(CCc1ccc(NC(=O)c3cc(OC)c(OC)cc3NC(=O)c3cnc4ccccc4c3)cc1)CC2 [Tariquidar, tariquidar]
[16]
  inhibition at 10 min: 40%
[17]
  IC50: 3600 nM
[18]
  inhibition at 10 min: 73%
[19]
  inhibition at 10 min: 37%
[20]
  inhibition at 10 min: 22%
[21]
  IC50: 700 nM
[22]
  inhibition at 10 min: 64%
[1]
  Ability to inhibit IAAP photo-labeling: lose almost completely this ability
[23]
  inhibition at 10 min: 23%
[2]
  IC50: 140 ± 30 nM
[3]
  inhibition at 10 min: 97 ± 4%
[24]
  Modulation of ATP hydrolysis: found to be inhibited
